Laboratory results taken from patent US8299022B2, “Analogs of ghrelin substituted at the N-terminal” (IPSEN Pharma S.A.S., priority 2006, dated 2012).

test: Rat plasma ½ life (stability in plasma in a rat model); type: in vitro ADME
Experimental: A selection of the preferred embodiments listed above was analyzed to determine stability, i.e. ½ life in plasma in a rat model using techniques known to those skilled in the art.

`CCCCCCNC(=O)CC[C@H](NC(=O)C(C)(C)NC(=O)C1(N)CCNCC1)C(=O)N[C@@H](Cc1ccccc1)C(=O)N[C@@H](CC(C)C)C(=O)N[C@@H](CO)C(=O)N1CCC[C@H]1C(=O)N[C@@H](CCC(=O)O)C(=O)N[C@@H](Cc1c[nH]cn1)C(=O)NC(C)(C)C(=O)N[C@@H](CCCNC(=N)N)C(=O)N[C@H](C(=O)N[C@@H](CCC(N)=O)C(=O)N[C@@H](CCC(N)=O)C(=O)N[C@@H](CCCNC(=N)N)C(=O)N[C@@H](CCCCN)C(=O)N[C@@H](CCC(=O)O)C(=O)N[C@@H](CO)C(=O)N[C@@H](CCCCN)C(=O)N[C@@H](CCCCN)C(=O)N1CCC[C@H]1C(=O)N1CCC[C@H]1C(=O)N[C@@H](C)C(=O)N[C@@H](CCCCN)C(=O)N[C@@H](CC(C)C)C(=O)N[C@@H](CCC(N)=O)C(=O)N1CCC[C@H]1C(=O)N[C@@H](CCCNC(=N)N)C(N)=O)C(C)C` [Example 4, (1-Apc^1, Aib^2, 10, Glu(NH-hexyl)^3)-hGhrelin(1-28)-NH2] and `CCCCCCNC(=O)CC[C@H](NC(=O)C(C)(C)NC(=O)C1CCNCC1)C(=O)N[C@@H](Cc1ccccc1)C(=O)N[C@@H](CC(C)C)C(=O)N[C@@H](CO)C(=O)N1CCC[C@H]1C(=O)N[C@@H](CCC(=O)O)C(=O)N[C@@H](Cc1c[nH]cn1)C(=O)N[C@@H](CCC(N)=O)C(=O)N[C@@H](CCCNC(=N)N)C(=O)N[C@H](C(=O)N[C@@H](CCC(N)=O)C(=O)N[C@@H](CCC(N)=O)C(=O)N[C@@H](CCCNC(=N)N)C(=O)N[C@@H](CCCCN)C(=O)N[C@@H](CCC(=O)O)C(=O)N[C@@H](CO)C(=O)N[C@@H](CCCCN)C(=O)N[C@@H](CCCCN)C(=O)N1CCC[C@H]1C(=O)N1CCC[C@H]1C(=O)N[C@@H](C)C(=O)N[C@@H](CCCCN)C(=O)N[C@@H](CC(C)C)C(=O)N[C@@H](CCC(N)=O)C(=O)N1CCC[C@H]1C(=O)N[C@@H](CCCNC(=N)N)C(N)=O)C(C)C` [Example 7, (Inp^1, Aib^2, Glu(NH-hexyl)^3)hGhrelin(1-28)-NH2] are within 1.5-fold of each other in “Rat Plasma ½ life” value: 10.0 h for the first, 6.7 h for the second.

First: CCCCCCCC(=O)OC[C@H](NC(=O)[C@H](CO)NC(=O)C1CCNCC1)C(=O)N[C@@H](Cc1ccccc1)C(=O)N[C@@H](CC(C)C)C(=O)N[C@@H](CO)C(=O)N1CCC[C@H]1C(=O)N[C@@H](CCC(=O)O)C(=O)N[C@@H](Cc1c[nH]cn1)C(=O)N[C@@H](CCC(N)=O)C(=O)N[C@@H](CCCNC(=N)N)C(=O)N[C@H](C(=O)N[C@@H](CCC(N)=O)C(=O)N[C@@H](CCC(N)=O)C(=O)N[C@@H](CCCNC(=N)N)C(=O)N[C@@H](CCCCN)C(=O)N[C@@H](CCC(=O)O)C(=O)N[C@@H](CO)C(=O)N[C@@H](CCCCN)C(=O)N[C@@H](CCCCN)C(=O)N1CCC[C@H]1C(=O)N1CCC[C@H]1C(=O)N[C@@H](C)C(=O)N[C@@H](CCCCN)C(=O)N[C@@H](CC(C)C)C(=O)N[C@@H](CCC(N)=O)C(=O)N1CCC[C@H]1C(=O)N[C@@H](CCCNC(=N)N)C(N)=O)C(C)C [Example 5, (Inp^1)hGhrelin(1-28)-NH2]
Second: CCCCCCCC(=O)OC[C@H](NC(=O)C(C)(C)NC(=O)C1CCNCC1)C(=O)N[C@@H](Cc1ccccc1)C(=O)N[C@@H](CC(C)C)C(=O)N[C@@H](CO)C(=O)N1CCC[C@H]1C(=O)N[C@@H](CCC(=O)O)C(=O)N[C@@H](Cc1c[nH]cn1)C(=O)N[C@@H](CCC(N)=O)C(=O)N[C@@H](CCCNC(=N)N)C(=O)N[C@H](C(=O)N[C@@H](CCC(N)=O)C(=O)N[C@@H](CCC(N)=O)C(=O)N[C@@H](CCCNC(=N)N)C(=O)N[C@@H](CCCCN)C(=O)N[C@@H](CCC(=O)O)C(=O)N[C@@H](CO)C(=O)N[C@@H](CCCCN)C(=O)N[C@@H](CCCCN)C(=O)N1CCC[C@H]1C(=O)N1CCC[C@H]1C(=O)N[C@@H](C)C(=O)N[C@@H](CCCCN)C(=O)N[C@@H](CC(C)C)C(=O)N[C@@H](CCC(N)=O)C(=O)N1CCC[C@H]1C(=O)N[C@@H](CCCNC(=N)N)C(N)=O)C(C)C [Example 6, (Inp^1, Aib^2)hGhrelin(1-28)-NH2]
The “Rat Plasma ½ life” value of the first is 4.4-fold higher: 6.2 h for the first, 1.4 h for the second.
